{"source": "patent US20260325521A1", "about": "“TREATMENT OF IDIOPATHIC PULMONARY FIBROSIS WITH ENSIFENTRINE” (Verona Pharma Limited, priority 2022, published 2026)", "type_in_all_cases": "in vivo", "key": {"IL-6": {"tested_on": "IL-6", "experiment": "Clinical study in COPD patients: change in blood IL-6 with inhaled ensifentrine compared with placebo", "settings": "inhaled by nebuliser, 3 mg BID, 24 weeks, FIG. 1", "procedure": "(§1) A clinical study was conducted to determine the efficacy of ensifentrine in treating COPD compared with placebo. Ensifentrine was administered by nebuliser at a dose of 3 mg twice daily (BID) for 24 weeks. The study was a multi-centre, randomized, double-blind, parallel-group, placebo-controlled trial with around 800 patients and 5:3 randomization.\n(§2) The study population included patients aged 40-80 years with moderate to severe COPD (FEV1 30%-70% p.n., FEV1/forced vital capacity (FVC) ratio <0.7, with mMRC ≥2). The randomization stratified (a) the use of stable background maintenance LAMA or LABA therapy use (approx. 50%. yes or no) and (b) cigarette smoking (current or former). Inhaled corticosteroid (ICS) maintenance therapy was permitted in up to 20% of patients under certain provisions.\n(§3) The effect of ensifentrine on the change in blood IL-6 and IL-8 was measured.\n(§4) The investigational product and placebo were provided in 2.5 mL unit dose format in an ampule and administered via a nebuliser."}, "IL-8": {"tested_on": "IL-8", "experiment": "Clinical study in COPD patients: change in blood IL-8 with inhaled ensifentrine compared with placebo", "settings": "inhaled by nebuliser, 3 mg BID, 24 weeks, FIG. 1", "procedure": "as §1, §2, §3, §4"}, "[1]": {"tested_on": "bleomycin-induced lung fibrosis", "experiment": "Rodent model of bleomycin-induced lung fibrosis (Example 2)", "settings": "rodents, inhalation; dose and period not given; histological fibrotic area", "procedure": "The anti-fibrotic activity of ensifentrine is assessed using a rodent model of bleomycin-induced lung fibrosis.\nBleomycin is administered to anaesthetised rodents to induce lung fibrosis. Ensifentrine is then administered to the test rodents by inhalation for a period, and the rodents are subsequently killed. Lung samples are obtained for histological studies to determine fibrotic area."}, "[2]": {"tested_on": "inflammatory cell and macrophage infiltration into the rat airways", "experiment": "Bleomycin-induced pulmonary fibrosis in rats: BAL differential cell counts", "procedure": "(§5) An in vivo study was conducted to determine the efficacy of ensifentrine in the treatment of bleomycin-induced pulmonary fibrosis in rats in comparison to a control. Rats were administered bleomycin to induce pulmonary fibrosis. After a week, they then received a daily inhaled dosage of ensifentrine or a control over a period of two weeks. At the end of the two weeks, the rats were sacrificed and their airways were analysed for Bronchoalveolar lavage (BAL) differential cell counts and TGF-β concentration.\n(§6) The BAL differential cell count provided a total inflammatory cell count so that changes in inflammation following treatment could be observed. TGF-β is a key cytokine in the development of tissue fibrosis. Macrophages and other immune cells produce TGF-β, which induces the differentiation of fibroblasts to myofibroblasts and increases TGF-β expression. Overexpression of active TGF-β1 in the lungs of rodents causes severe and progressive tissue fibrosis, including fibroblastic foci and honeycomb formation.\n(§7) At day 0, the rats were subjected to an intratracheal challenge of either 0.9% w/v saline or bleomycin, the latter used to induce pulmonary fibrosis.\n(§8) Starting on day 7, two groups of 12 rats from the bleomycin challenge group were administered an inhaled dose of ensifentrine at either 3 mg/kg (Experiment 1) or 10 mg/kg (Experiment 2) on a daily basis for two weeks, terminating on day 21. The ensifentrine was administered as a suspension in the vehicle suspension article.\n(§9) Two control experiments were also conducted. Control 1 subjected 12 rats from the saline challenge group to daily administration of the vehicle suspension article via inhalation for the full 21 days. Control 2 subjected 12 rats from the bleomycin challenge group to daily administration of the vehicle suspension article via inhalation for the full 21 days.\n(§10) At the end of the 21-day period, the rats were sacrificed and the BAL differential cell counts and the TGF-β concentration data were collected."}, "TGF-β": {"tested_on": "TGF-β", "experiment": "Bleomycin-induced pulmonary fibrosis in rats: TGF-β concentration", "procedure": "as §5, §6, §7, §8, §9, §10\nAn in vivo study was conducted to compare the efficacy of ensifentrine and nintedanib in the treatment of bleomycin-induced pulmonary fibrosis in rats. Following the same initial experimental procedure as in Example 3, 12 rats from the bleomycin challenge group were administered a daily dose of 100 mg/kg of nintedanib via an oral gavage for two weeks, starting from day 7 (Experiment 3). A new control experiment was also conducted (Control 3), administering the vehicle suspension article orally in an aqueous solution.\nAt day 21, the rats were sacrificed and their airways were analysed to calculate the TGF-β concentration. The results were compared to those of Experiments 1 and 2 (Example 3)."}, "[3]": {"tested_on": "bleomycin-induced pulmonary fibrosis", "experiment": "Efficacy in treatment of bleomycin-induced pulmonary fibrosis in rats (overall)", "settings": "inhalation, 3 mg/kg and 10 mg/kg", "procedure": "as §5, §7, §8\nTwo control experiments were also conducted. Control 1 subjected 12 rats from the saline challenge group to daily administration of the vehicle suspension article via inhalation for the full 21 days. Control 2 subjected 12 rats from the bleomycin challenge group to daily administration of the vehicle suspension article via inhalation for the full 21 days. […]"}, "[4]": {"experiment": "Diarrhoea as side effect of inhaled ensifentrine in patients"}, "[5]": {"settings": "inhaled 3 mg/kg/day QD from day 7, day 21, vs bleomycin Control 2 (Experiment 1)"}, "[6]": {"settings": "inhaled 10 mg/kg/day QD from day 7, day 21, vs bleomycin Control 2 (Experiment 2)"}}, "note": "Entries after “also recorded” stand apart in the source; their conditions may differ."}
{"smiles": "COc1cc2c(cc1OC)-c1c/c(=N\\c3c(C)cc(C)cc3C)n(CCNC(N)=O)c(=O)n1CC2", "note": "[ensifentrine, N-(2-{(2E)-9,10-dimethoxy-4-oxo-2-[(2,4,6-trimethylphenyl)imino]-6,7-dihydro-2H-pyrimido[6,1-a]isoquinolin-3(4H)-yl}ethyl)urea]", "values": [{"measurement": "blood IL-6", "setting": "IL-6", "value": "reduce blood IL-6; also recorded: reduction in blood IL-6"}, {"measurement": "blood IL-8", "setting": "IL-8", "value": "reduce blood IL-6 and IL-8; also recorded: reduction in blood IL-6 and IL-8"}, {"measurement": "anti-fibrotic effect in bleomycin-induced lung fibrosis", "setting": "[1]", "value": "anti-fibrotic effect"}, {"measurement": "BAL differential cell count", "setting": "[2]; inhaled 3 mg/kg QD from day 7, day 21 (Experiment 1)", "value": "reduction in BAL differential cell count"}, {"measurement": "macrophage infiltration into the airways (BAL differential cell counts)", "setting": "[2]; [5]", "value": "reduction in total inflammatory cell and macrophage infiltration"}, {"measurement": "total inflammatory cell infiltration into the airways (BAL differential cell counts)", "setting": "[2]; [5]", "value": "reduction in total inflammatory cell"}, {"measurement": "BAL differential cell count", "setting": "[2]; inhaled 10 mg/kg QD from day 7, day 21 (Experiment 2)", "value": "reduction in BAL differential cell count"}, {"measurement": "macrophage infiltration into the airways (BAL differential cell counts)", "setting": "[2]; [6]", "value": "reduction in total inflammatory cell and macrophage infiltration"}, {"measurement": "total inflammatory cell infiltration into the airways (BAL differential cell counts)", "setting": "[2]; [6]", "value": "reduction in total inflammatory cell"}, {"measurement": "TGF-β concentration in the rat lungs compared with nintedanib", "setting": "TGF-β; day 21, inhaled ensifentrine 3 mg/kg/day (Experiment 1) vs oral nintedanib 100 mg/kg/day (Experiment 3)", "value": "lower than the TGF-β concentration following treatment with nintedanib; also recorded: greater reduction in TGF-β concentration than orally administered nintedanib"}, {"measurement": "TGF-β concentration in the rat lungs compared with nintedanib", "setting": "TGF-β; day 21, inhaled ensifentrine 10 mg/kg/day (Experiment 2) vs oral nintedanib 100 mg/kg/day (Experiment 3)", "value": "lower than the TGF-β concentration following treatment with nintedanib; also recorded: greater reduction in TGF-β concentration than orally administered nintedanib"}, {"measurement": "TGF-β concentration", "setting": "TGF-β; [5]", "value": "lower; also recorded: reduction in BAL differential cell count and TGF-β concentration"}, {"measurement": "TGF-β concentration", "setting": "TGF-β; [6]", "value": "lower; also recorded: reduction in BAL differential cell count and TGF-β concentration"}, {"measurement": "efficacy in the treatment of bleomycin-induced pulmonary fibrosis", "setting": "[3]", "value": "effective"}, {"measurement": "diarrhoea (side effect)", "setting": "[4]", "value": "avoid side effects such as diarrhoea; also recorded: not to be associated with diarrhoea"}]}
